Measured values reported in ChEMBL document CHEMBL3885861, “Open TG-GATES”.

Species: Rattus norvegicus
Assay: Open TG-GATES - Regimen: Single
Format: toxicity, organism-based, Sprague-Dawley
Set-up: regimen Single, gender Male, age 6 weeks
Conditions: in vivo, iv, route intravenous injection; for MCV / Mono / Neu / PT / Plat / RBC / Ret / WBC / APTT / Bas / Eos / Fbg / Hb / Ht / Lym / MCH / MCHC: tissue Blood; for KIDNEY_L / KIDNEY_R / KIDNEY_TOTAL: tissue Kidney; for LIVER: tissue Liver; for A/G / ALP / ALT / AST / BUN / CRE / Ca / Cl / DBIL / GLC / IP / K / LDH / Na / PL / RALB / TBIL / TC / TG / TP / gamma-GTP: tissue Plasma
[1] = 0 mg/kg, 24 h, dose level Control

Molecule `C[C@@H]1[C@H](O)[C@@H](C)/C=C/C=C/C=C/C=C/C=C/C=C/C=C/[C@H](O[C@@H]2O[C@H](C)[C@@H](O)[C@H](N)[C@@H]2O)C[C@@H]2O[C@](O)(C[C@@H](O)C[C@@H](O)[C@H](O)CC[C@@H](O)C[C@@H](O)CC(=O)O[C@H]1C)C[C@H](O)[C@H]2C(=O)O` [AMPHOTERICIN B] has an MCV [1] of 62.4 fL, a Mono [1] of 2.2% and a Neu [1] of 17%. The PT [1] was 12.3 s, the Plat [1] was 145.5 x10_4/uL and the RBC [1] was 621.8 x10_4/ul. It also gave a Ret [1] of 7.1%, a WBC [1] of 93.8 x10_2/uL and a KIDNEY_L [1] of 1 g. For the same molecule, the KIDNEY_R [1] was 1 g, the KIDNEY_TOTAL [1] was 1.9 g and the LIVER [1] was 10.4 g. It also gave an A/G [1] of 0.9, an ALP [1] of 1818.6 IU/L and an ALT [1] of 37.6 IU/L. For the same molecule, the AST [1] was 66.8 IU/L, the BUN [1] was 15.2 mg/dL and the CRE [1] was 0.2 mg/dL. The Ca [1] was 11 mg/dL, the Cl [1] was 105.6 meq/L and the DBIL [1] was 0.02 mg/dL. It also gave a GLC [1] of 169 mg/dL, an IP [1] of 7.7 mg/dL and a K [1] of 3.8 meq/L. It also gave an LDH [1] of 53.2 IU/L, a Na [1] of 143.4 meq/L and a PL [1] of 133.4 mg/dL. The RALB [1] was 2.6 g/dL, the TBIL [1] was 0.054 mg/dL and the TC [1] was 74.2 mg/dL. The TG [1] was 96.8 mg/dL, the TP [1] was 5.8 g/dL and the gamma-GTP [1] was 1.6 IU/L. The TERMINAL_BW (1 mg/kg, 3 h, dose level Low) was 214.2 g, the APTT (1 mg/kg, 3 h, dose level Low) was 16.8 s and the Bas (1 mg/kg, 3 h, dose level Low) was 0%. For the same molecule, the Eos (1 mg/kg, 3 h, dose level Low) was 0.6%, the Fbg (1 mg/kg, 3 h, dose level Low) was 257 mg/dL and the Hb (1 mg/kg, 3 h, dose level Low) was 13.6 g/dL. It also gave a Ht (1 mg/kg, 3 h, dose level Low) of 39.9%, a Lym (1 mg/kg, 3 h, dose level Low) of 74.6% and an MCH (1 mg/kg, 3 h, dose level Low) of 21.2 pg. The MCHC (1 mg/kg, 3 h, dose level Low) was 34.1%, the MCV (1 mg/kg, 3 h, dose level Low) was 62 fL and the Mono (1 mg/kg, 3 h, dose level Low) was 3.2%. The Neu (1 mg/kg, 3 h, dose level Low) was 20.6%, the PT (1 mg/kg, 3 h, dose level Low) was 13 s and the Plat (1 mg/kg, 3 h, dose level Low) was 139.1 x10_4/uL. The RBC (1 mg/kg, 3 h, dose level Low) was 644.6 x10_4/ul, the Ret (1 mg/kg, 3 h, dose level Low) was 7.7% and the WBC (1 mg/kg, 3 h, dose level Low) was 97.1 x10_2/uL. For the same molecule, the KIDNEY_L (1 mg/kg, 3 h, dose level Low) was 1 g, the KIDNEY_R (1 mg/kg, 3 h, dose level Low) was 1 g and the KIDNEY_TOTAL (1 mg/kg, 3 h, dose level Low) was 1.9 g. The LIVER (1 mg/kg, 3 h, dose level Low) was 9.8 g, the A/G (1 mg/kg, 3 h, dose level Low) was 0.9 and the ALP (1 mg/kg, 3 h, dose level Low) was 1691 IU/L. For the same molecule, the ALT (1 mg/kg, 3 h, dose level Low) was 40 IU/L, the AST (1 mg/kg, 3 h, dose level Low) was 85.4 IU/L and the BUN (1 mg/kg, 3 h, dose level Low) was 18.8 mg/dL. The CRE (1 mg/kg, 3 h, dose level Low) was 0.2 mg/dL, the Ca (1 mg/kg, 3 h, dose level Low) was 10.9 mg/dL and the Cl (1 mg/kg, 3 h, dose level Low) was 106.6 meq/L. It also gave a DBIL (1 mg/kg, 3 h, dose level Low) of 0.018 mg/dL, a GLC (1 mg/kg, 3 h, dose level Low) of 173.4 mg/dL and an IP (1 mg/kg, 3 h, dose level Low) of 8.6 mg/dL. The K (1 mg/kg, 3 h, dose level Low) was 3.9 meq/L, the LDH (1 mg/kg, 3 h, dose level Low) was 58.8 IU/L and the Na (1 mg/kg, 3 h, dose level Low) was 143.2 meq/L. It also gave a PL (1 mg/kg, 3 h, dose level Low) of 129.4 mg/dL, an RALB (1 mg/kg, 3 h, dose level Low) of 2.6 g/dL and a TBIL (1 mg/kg, 3 h, dose level Low) of 0.058 mg/dL. The TC (1 mg/kg, 3 h, dose level Low) was 74 mg/dL, the TG (1 mg/kg, 3 h, dose level Low) was 53.8 mg/dL and the TP (1 mg/kg, 3 h, dose level Low) was 5.6 g/dL. For the same molecule, the gamma-GTP (1 mg/kg, 3 h, dose level Low) was 2 IU/L, the TERMINAL_BW (1 mg/kg, 6 h, dose level Low) was 208.2 g and the APTT (1 mg/kg, 6 h, dose level Low) was 15.4 s. The Bas (1 mg/kg, 6 h, dose level Low) was 0%, the Eos (1 mg/kg, 6 h, dose level Low) was 0.8% and the Fbg (1 mg/kg, 6 h, dose level Low) was 286.6 mg/dL. It also gave a Hb (1 mg/kg, 6 h, dose level Low) of 13.3 g/dL, a Ht (1 mg/kg, 6 h, dose level Low) of 39.5% and a Lym (1 mg/kg, 6 h, dose level Low) of 68.6%. The MCH (1 mg/kg, 6 h, dose level Low) was 20.9 pg, the MCHC (1 mg/kg, 6 h, dose level Low) was 33.7% and the MCV (1 mg/kg, 6 h, dose level Low) was 62 fL. For the same molecule, the Mono (1 mg/kg, 6 h, dose level Low) was 2.8%, the Neu (1 mg/kg, 6 h, dose level Low) was 27% and the PT (1 mg/kg, 6 h, dose level Low) was 12.8 s. The Plat (1 mg/kg, 6 h, dose level Low) was 135.3 x10_4/uL, the RBC (1 mg/kg, 6 h, dose level Low) was 636.4 x10_4/ul and the Ret (1 mg/kg, 6 h, dose level Low) was 7.9%. For the same molecule, the WBC (1 mg/kg, 6 h, dose level Low) was 98.4 x10_2/uL, the KIDNEY_L (1 mg/kg, 6 h, dose level Low) was 1 g and the KIDNEY_R (1 mg/kg, 6 h, dose level Low) was 0.9 g. It also gave a KIDNEY_TOTAL (1 mg/kg, 6 h, dose level Low) of 1.9 g, an LIVER (1 mg/kg, 6 h, dose level Low) of 9 g and an A/G (1 mg/kg, 6 h, dose level Low) of 0.8. It also gave an ALP (1 mg/kg, 6 h, dose level Low) of 1534.4 IU/L, an ALT (1 mg/kg, 6 h, dose level Low) of 38.2 IU/L and an AST (1 mg/kg, 6 h, dose level Low) of 70.8 IU/L. It also gave a BUN (1 mg/kg, 6 h, dose level Low) of 16.4 mg/dL, a CRE (1 mg/kg, 6 h, dose level Low) of 0.1 mg/dL and a Ca (1 mg/kg, 6 h, dose level Low) of 10.7 mg/dL. The Cl (1 mg/kg, 6 h, dose level Low) was 106.6 meq/L, the DBIL (1 mg/kg, 6 h, dose level Low) was 0.016 mg/dL and the GLC (1 mg/kg, 6 h, dose level Low) was 180 mg/dL. The IP (1 mg/kg, 6 h, dose level Low) was 10.1 mg/dL, the K (1 mg/kg, 6 h, dose level Low) was 3.4 meq/L and the LDH (1 mg/kg, 6 h, dose level Low) was 57.2 IU/L. The Na (1 mg/kg, 6 h, dose level Low) was 144.6 meq/L, the PL (1 mg/kg, 6 h, dose level Low) was 135 mg/dL and the RALB (1 mg/kg, 6 h, dose level Low) was 2.6 g/dL. The TBIL (1 mg/kg, 6 h, dose level Low) was 0.062 mg/dL, the TC (1 mg/kg, 6 h, dose level Low) was 83.8 mg/dL and the TG (1 mg/kg, 6 h, dose level Low) was 41.4 mg/dL. It also gave a TP (1 mg/kg, 6 h, dose level Low) of 5.7 g/dL, a gamma-GTP (1 mg/kg, 6 h, dose level Low) of 1.4 IU/L and a TERMINAL_BW (1 mg/kg, 9 h, dose level Low) of 208.6 g. It also gave an APTT (1 mg/kg, 9 h, dose level Low) of 16.5 s, a Bas (1 mg/kg, 9 h, dose level Low) of 0% and an Eos (1 mg/kg, 9 h, dose level Low) of 1%. For the same molecule, the Fbg (1 mg/kg, 9 h, dose level Low) was 296.2 mg/dL, the Hb (1 mg/kg, 9 h, dose level Low) was 13.2 g/dL and the Ht (1 mg/kg, 9 h, dose level Low) was 38.5%. It also gave a Lym (1 mg/kg, 9 h, dose level Low) of 71.4%, an MCH (1 mg/kg, 9 h, dose level Low) of 20.9 pg and an MCHC (1 mg/kg, 9 h, dose level Low) of 34.2%. For the same molecule, the MCV (1 mg/kg, 9 h, dose level Low) was 61 fL, the Mono (1 mg/kg, 9 h, dose level Low) was 1.8% and the Neu (1 mg/kg, 9 h, dose level Low) was 25.4%. The PT (1 mg/kg, 9 h, dose level Low) was 12.9 s, the Plat (1 mg/kg, 9 h, dose level Low) was 132.4 x10_4/uL and the RBC (1 mg/kg, 9 h, dose level Low) was 631.6 x10_4/ul. The Ret (1 mg/kg, 9 h, dose level Low) was 7.9%, the WBC (1 mg/kg, 9 h, dose level Low) was 97.1 x10_2/uL and the KIDNEY_L (1 mg/kg, 9 h, dose level Low) was 0.9 g. It also gave a KIDNEY_R (1 mg/kg, 9 h, dose level Low) of 0.9 g and a KIDNEY_TOTAL (1 mg/kg, 9 h, dose level Low) of 1.9 g.
